Data as given in patent US20110136768A1 (THE GENERAL HOSPITAL CORPORATION, priority 2008, published 2011).
Counter-ions that a name gives are not always drawn.

Assays:
patients with NSF [1] = assay: Skin biopsy histology before and after IM (hematoxylin & eosin, type I procollagen staining); assay type: in vivo, human
Excerpt: FIG. 2 (A and B) are photographs of skin biopsies from Patient 1 before (FIG. 2A) and after 15 weeks (FIG. 2B) of treatment with IM, at similar magnification and under equivalent lighting. […] (hematoxylin & eosin staining, 12.5× total magnification). The grey line in each panel identifies the level of the eccrine ducts, structures that occur at a relatively uniform depth in a particular region of the body.
FIG. 3 (A and B) are photographs of skin biopsies from Patient 1 before (FIG. 3A) and after 15 weeks (FIG. 3B) of treatment with IM, at similar magnification and under equivalent lighting. […] (type I procollagen immunohistochemical staining, 12.5× magnification) The grey line in each panel identifies the level of the eccrine ducts.
Skin biopsies performed both before and after initial dosing of Patient 1 with IM were compared. Both specimens were obtained from the same anatomic area, with the second biopsy taken immediately adjacent to the resolved scar from the prior procedure, but each biopsy had been performed using different technique (The first biopsy was an excisional biopsy, the second was a punch biopsy). […] Furthermore, in the specimen obtained after IM treatment, fewer type I procollagen^+ cells were present in the upper dermis (FIG. 3B). The second biopsy contained 124 ppm (μg/g, dry weight) of gadolinium, essentially unchanged from that of the pretreatment biopsy (High et al.: Gadolinium is quantifiable within the tissue of patients with nephrogenic systemic fibrosis, J Am Acad Dermatol 2007).

patients with NSF [2] = assay: Adverse effects in the two treated NSF patients; assay type: in vivo, human; settings: both patients
Protocol: (§1) Two patients diagnosed with NSF that was associated with gadolinium exposure were assessed and treated with orally administered imatinib mesylate over an extended period of time. Their progress was assessed as were any side effects of the treatment.
Patient 1 developed gastrointestinal upset that resolved when corticosteroid replacement with 7.5 mg/day oral prednisone was initiated to treat adrenal insufficiency 17 weeks after re-initiation of IM, despite continuation of IM.

patients with NSF [3] = assay: Skin involvement by modified Rodnan skin score (mRSS) in treated NSF patients; assay type: in vivo, human
Protocol: as §1
They were offered treatment with imatinib mesylate. […] Shortly thereafter, […] PD catheter stopped functioning and they began to undergo HD.
To determine whether a higher dose of IM might yield further improvement in their skin changes, their daily dose was increased from 400 mg to 600 mg at the end of January 2007. Because of a hospitalization in February 2007, for evaluation and treatment of chronic gastrointestinal bleeding, they stopped taking IM for 2 weeks. They resumed taking daily oral IM 600 mg, one week later, but they again stopped taking it after 6 days, when they underwent elective surgical repair of an abdominal hernia. They once again resumed taking oral IM 400 mg daily in May 2007. However, because of difficulty controlling their INR, they discontinued IM two weeks later. Off of IM, their Coumadin anticoagulation has been managed more easily.
Skin involvement was assessed using the modified version of the Rodnan skin score (mRSS). The same examiner evaluated each patient at each visit. Seventeen skin sites were evaluated: the face, upper arms, […], dorsum of the hands, fingers, chest, abdomen, thighs, […], and feet. Each site was graded: 0=normal skin, 1=thickened skin, 2=thickened and unable to pinch, or 3=thickened and unable to move. The maximum total score is 51.

patients with NSF [4] = assay: Knee joint flexion contracture measured with a goniometer in treated NSF patients; assay type: in vivo, human
Protocol: as §1
Loss of knee joint extension (flexion contracture) was assessed by measuring maximal passive knee extension, with the patient in a supine position, using a goniometer. The center of the goniometer was placed at the lateral femoral condyle, with the proximal arm positioned along the longitudinal axis of the femur and the distal arm aligned with the long axis of the tibia. Measurements were rounded to the nearest multiple of 5 degrees. Although flexion contractures appeared symmetric in both patients, the knee with the greater flexion contracture at baseline was assessed for change at subsequent visit.

patients with NSF [5] = settings: two patients; cited from earlier work

Compound | staining for type I procollagen in skin biopsy (patients with NSF [1]; Patient 1, after 15 weeks of IM versus before) | fibrosis in skin biopsy (patients with NSF [1]; Patient 1, after 15 weeks of IM versus before, hematoxylin & eosin) | type I procollagen+ cells in the upper dermis (patients with NSF [1]; Patient 1, after IM treatment versus before) | congestive heart failure (patients with NSF [2]) | adverse effect related to IM (patients with NSF [2]; corrected by dialysis treatment) | mRSS (patients with NSF [3]; Patient 1, after oral IM 400 mg daily over 15 weeks) | mRSS (patients with NSF [3]; Patient 1, after subsequent 9 weeks without IM) | mRSS (patients with NSF [3]; Patient 1, baseline before oral IM 400 mg daily, maximum total score 51) | mRSS (patients with NSF [3]; Patient 1, within 5 weeks of resuming oral IM 400 mg daily (from 33)) | mRSS (patients with NSF [3]; Patient 2, baseline before oral IM 400 mg daily) | mRSS (patients with NSF [3]; Patient 2, while taking oral IM 400 mg daily) | mRSS (patients with NSF [3]; Patient 2, within 5 weeks of stopping IM) | knee joint flexion contractures (patients with NSF [4]; Patient 1, off IM for 9 weeks, both knees) | knee joint flexion contractures (patients with NSF [4]; Patient 1, week 6 of IM, with physical therapy) | knee joint flexion contractures (patients with NSF [4]; Patient 1, week 15 of IM, with physical therapy) | knee joint flexion contractures (patients with NSF [4]; Patient 2, after discontinuing IM, none when they began IM) | skin thickening and joint mobility (patients with NSF [5])
Cc1ccc(NC(=O)c2ccc(CN3CCN(C)CC3)cc2)cc1Nc1nccc(-c2cccnc2)n1 [imatinib mesylate] | less staining for type I procollagen | less fibrosis | fewer | Neither patient developed congestive heart failure | fluid retention | 16 | 33 | 42 | 10 | 12 | 2 | 15 | 25 ° | 25 ° | 10 ° | knee joint flexion contractures developed that gradually progressed over time | –
CC(=O)CCCCn1c(=O)c2c(ncn2C)n(C)c1=O [pentoxyphyline] | – | – | – | – | – | – | – | – | – | – | – | – | – | – | – | – | Decreased skin thickening and improved joint mobility
